{"source": "paper PMC10644327", "about": "“A randomized, double‐blind phase 1b study evaluating the safety, tolerability, pharmacokinetics and pharmacodynamics of the NLRP3 inhibitor selnoflast in patients with moderate to severe active ulcerative colitis” (Clinical and Translational Medicine, 2023)", "system": "Caspase‐1", "experiment": "Caspase‐1 (pro and active form) WES‐assay in sigmoid colon tissue", "format": "in vivo, human", "conditions": "after 7 days’ treatment", "protocol": "Tissue biopsies from the sigmoid colon were obtained before start of treatment (up to Day −3) and at the end of treatment (Day 7). For operational reasons, biopsies were taken 2−4.5 h post‐dose on Day 7. Stool samples were obtained at screening, before start of treatment, throughout the study, and at the 14‐day follow‐up visit. Levels of calprotectin were determined in stool samples. Sigmoid colon tissue was processed for RNA and DNA extraction as well as for single‐cell analysis, subsequent transcriptomic analysis, and identification of PD biomarkers. Sigmoid colon tissue samples were also processed for histology (hematoxylin and eosin staining, immunohistochemistry, fluorescence in situ hybridization) in order to characterize the cell types present (i.e., neutrophils and inflammatory monocytes). Histological analysis was performed on sigmoid colon tissue samples (from baseline and Day 7) using the disease‐specific histological indices Geboes score[23] and Nancy index.[24] Caspase‐1 (pro and active form) was assessed using a validated WES‐assay (manuscript in preparation)."}
{"smiles": "CCN1CCC(S(=O)(=O)NC(=O)Nc2c3c(cc4c2CCC4)CCC3)CC1", "note": "[Selnoflast, selnoflast]", "values": [{"measurement": "Caspase‐1 (pro‐ and active forms) change", "value": "did not show marked changes"}]}
